Test results: patent US9463195B2, “Dissolution of amyloid fibrils by flavonoids and other compounds” (The Regents of the University of California, priority 2006, dated 2016)
Counter-ions that a name gives are not always drawn. Like-named read-outs stand apart in the source and are kept apart here.

Tests used:
[1] = molecular target: T1, preformed human β-2 microglobulin fibrils (Homo sapiens, UniProt P61769); assay: Thioflavin T fluorescence high-throughput screen (slope assay score) for disruption of preformed fibrils; format: biochemical; conditions: for Slope Assay Score: slope of relative ThT fluorescence versus time, more negative = stronger disruption
Experimental: As used herein, “slope assay score” means the slope of the relative fluorescence of thioflavin T versus time curve for a given compound in a thioflavin T fluorescence assay. A negative slope signifies a decrease in thioflavin T fluorescence over time.
The human β-2 microglobulin fibrils were prepared in vitro at 0.1 mg/mL protein in 25 mM phosphate, pH 2, 0.2 M NaCl without agitation for 1 week at 37° C., in the same manner as Ivanova et al. See Ivanova et al. (Proc Natl Acad Sci U.S.A. 2004 Jul. 20; 101(29):10584-9).
In our experiments, disruption of the fibrillar structure of preformed β-2 microglobulin fibrils was monitored by fluorescence. The dye used, thioflavin T, serves as a probe for the presence or absence of amyloid fibrils. Thioflavin T binds specifically to human β-2 microglobulin fibrils, causing a red shift in the fluorescence excitation spectra of the dye to produce a peak in the fluorescence emission spectrum at 482 nm when the excitation wavelength is set at 444 nm. […] Because aliquotting of fibrils has an inherent variability, we aimed for a high signal/noise ratio of ˜10.
In the fluorescence assay used here, preformed human β-2 microglobulin fibrils were mixed with a solution of 5 μM ThT in 50 mM glycine, pH 8.6 in a 3:14 ratio (final concentrations: 4.1 μM ThT, 41.2 mM glycine, 0.018 mg/mL β-2 microglobulin, 35 mM NaCl and 4.4 mM phosphate). Fluorescence was measured immediately after mixing (excitation wavelength set at 444 nm, emission wavelengths at 482, 490, and 502 nm) with a Molecular Devices FlexStation II.
In our experiments, we screened 5200 compounds to determine whether a compound could disrupt preformed human β-2 microglobulin fibrils. Preformed β-2 microglobulin fibrils and ThT were mixed in the ratios described above in Example 2 and divided among seventeen 384-well glass-bottom plates (Costar #6569) using 40 μL/well. Each of the sixteen commercial plates contained four columns of control wells: columns 1, 2, and 23 contained preformed fibrils+dimethylsulfoxide (herein, DMSO), but no compound; column 24 contained nonfibrillar β2M+DMSO (no compound). The final concentrations of compound and DMSO in the other wells were 10 μM and 1%, respectively. Compounds were obtained from the following chemical libraries: the MicroSource Discovery Systems, Inc. Spectrum Collection library (J Virology 77: 10288 (2003); Ann Rev Med 56: 321 (2005)), the first four plates from the Prestwick Chemical Inc. library, two BIOMOL plates (phosphatase/kinase inhibitor library and bioactive lipid library), and the first five plates from the ChemBridge Corporation DIVERSet.
Plate 17 was prepared in-house and set up slightly differently than the commercial plates. Column 24 contains nonfibrillar B2M as in the other plates. However, only the first two rows contain added compounds, and the remaining rows contain control samples (fibrils mixed with thioflavin T, no compound). The chemicals used to prepare this supplemental plate were purchased from SIGMA. For each compound, a 1 mM solution in OmniSolv DMSO was prepared and filtered with Millex-FG 0.2 micron filters. The supplementary plate contained compounds at 1 or 10 mM in 100% DMSO, such that the final screening concentration is 10 or 100 μM compound in I% DMSO.
All plates were read manually on a Molecular Devices FlexStation II using the bottom-read function. For each of the wells, an initial fluorescence intensity measurement was taken as a baseline.

[2] = molecular target: T1, preformed human β-2 microglobulin fibrils; assay: Electron microscopy as a secondary screen of fibril disruption; format: biochemical; conditions: for effect on fibrils by electron microscopy: at the concentrations tested
Experimental: Electron microscopy was used to confirm the effects of, among others, compounds 22 and L18 on the fibrils. Compounds 22 and L18 were mixed with drug and solvent or solvent alone and were separately incubated with preformed human β-2 microglobulin fibrils for two weeks. Compound 22 was tested at three concentrations (1 mM, 100 μM, and 10 μM). Aliquots were taken immediately after mixing, at day 2, at day 5, day 7, and day 14. Samples were fixed to grids (made hydrophilic by glow-discharge) upon taking the aliquots, washed with distilled water, and stained with 1% uranyl acetate. Grids were examined in a Hitachi H-7000 transmission electron microscope operating at 75 kV. Images were collected on Kodak electron microscope film 4489.

[3] = molecular target: T1, preformed human β-2 microglobulin fibrils; assay: Dose-response testing by thioflavin T fluorescence; format: biochemical; conditions: for Dose-Response (conc. at which slope is better than control): ThT/β2M fibril fluorescence, tested 100 nM to 10 mM
Experimental: Twelve compounds were selected for testing their dose-response effects. Dose-response curves were derived as follows. Preformed β-2 microglobulin fibrils were mixed with ThT in the ratios described above and divided into portions of 40 μL per well across 8 wells. The final concentrations were the same as used in the high-throughput screen: 4.1 μM ThT, 41.2 mM glycine, 0.018 mg/mL B2M, 35 mM NaCl, 4.4 mM phosphate. The first and last wells of each row were controls (B2M fibrils+ThT+solvent (water or DMSO)). To wells 2-7 of a given row, test compound was added to the β2M fibril/ThT mix such that the following final concentrations in the well were reached: 10 mM, 1 mM, 100 μM, 10 μM, 1 μM, and 100 nM. Each row was set up in duplicate. The wells were incubated for 99 hours and data collected at 2.5 hour intervals. Compound 22 was tested using both water and DMSO as solvent.
It is visually apparent that concentrations down to 10 μM of both compound 22 and L18 affect the B2M/Tht fluorescence.

[4] = system: preformed β-amyloid fibrils; conditions: Bush 2002; cited from earlier work
β-amyloid fibrils = conditions: Bush study; cited from earlier work
[5] = Gordon M et al 2006; cited from earlier work

T1 sequence (P61769 21-119): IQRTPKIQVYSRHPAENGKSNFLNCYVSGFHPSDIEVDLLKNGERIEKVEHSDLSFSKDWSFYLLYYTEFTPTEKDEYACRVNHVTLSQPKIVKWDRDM

| Molecule | effective in the fluorescence assay at disrupting β-2 microglobulin fibers [1] | effect on fibrils by electron microscopy [2] | concentration at which the compound affects thioflavin T/β-2M fibril fluorescence in a dose-dependent manner [3] | dose-dependent effect on thioflavin T/β-2 microglobulin fibril fluorescence (words) [3] | Dose-Response (conc. at which slope is better than control) [3] | Slope Assay Score [1] | also measured |
| --- | --- | --- | --- | --- | --- | --- | --- |
| Clc1ccc(COC(Cn2ccnc2)c2ccc(Cl)cc2Cl)cc1 (centres unmarked) [econazole nitrate] | effective | – | – | – | – | – | – |
| COC(=O)c1c(C)c2c(c(C)c1O)OC(=O)c1c(C)c(Cl)c(O)c(Cl)c1O2 [leoidin] | effective | – | – | – | – | – | – |
| OC[C@H]1O[C@@H](Oc2cc(O)cc(/C=C/c3ccc(O)cc3)c2)[C@H](O)[C@@H](O)[C@@H]1O [resveratrol-3-glucoside] | – | did not have an effect on fibrils | – | – | – | – | – |
| Cc1cc(O)c(C=O)c(O)c1C(=O)O [Haematommic Acid] | effective | visibly disrupted | less than or equal to 10 μM | dose-dependent effect | 1 µM | −.076 | state of fibrils by electron microscopy at 10 μM compound ([2]; 10 μM, two-week incubation): disrupted and unwound; state of fibrils by electron microscopy at 1 mM compound ([2]; two-week incubation): fibril dissolution was virtually complete |
| COc1cc(C)c2c(c1C=O)Oc1c(c(C)c(O)c3c1C(O)OC3=O)OC2=O (centres unmarked) [Stictic Acid] | effective | visibly disrupted | ≤ 10 µM | dose-dependent effect | 10 µM | −.098 | state of fibrils by electron microscopy at 100 μM compound ([2]; two-week incubation): mostly disrupted; state of fibrils by electron microscopy at 1 mM compound ([2]; two-week incubation): mostly disappeared |
| Cc1cc(N)c2ccccc2[n+]1CCCCCCCCCC[n+]1c(C)cc(N)c2ccccc21 [dequalinium dichloride] | effective | – | – | – | – | – | – |
| COc1cc(NC(C)CCCN)c2ncccc2c1 (centres unmarked) [Primaquine diphosphate] | effective | – | less than or equal to 10 μM | dose-dependent effect | 10 µM | −.058 | – |
| Dobutamine hydrochloride | effective | – | less than or equal to 10 μM | dose-dependent effect | 10 µM | −.058 | – |
| Cc1c(C(=O)O)c(O)cc2c1C(=O)c1c(O)c([C@@H]3O[C@H](CO)[C@@H](O)[C@H](O)[C@H]3O)c(O)c(O)c1C2=O [carminic acid] | effective | – | – | – | – | – | – |
| CN1CCc2cccc3c2[C@H]1Cc1ccc(O)c(O)c1-3 [Apomorphine hydrochloride hemihydrate] | effective | – | less than or equal to 1 μM | dose-dependent effect | 1 to 10 µM | −.061 | – |
| CCn1cc(C(=O)O)c(=O)c2ccc(C)nc21 [nalidixic acid] | effective | – | – | – | – | – | – |
| Oc1c(I)cc(Cl)c2cccnc12 [Clioquinol] | – | – | – | – | – | – | disruption of preformed β-amyloid fibrils [4]: disrupts; effectiveness in mice (β-amyloid fibrils): effective |
| NCCc1cc(O)c(O)cc1O [oxidopamine] | effective | – | – | – | – | – | – |
| C=C1c2c(Cl)ccc(O)c2C(O)=C2C(=O)[C@]3(O)C(=O)/C(=C(\N)O)C(=O)[C@@H](N(C)C)[C@@H]3[C@@H](O)[C@H]12 [Meclocycline sulfosalicylate] | effective | visibly disrupted | less than or equal to 10 μM | dose-dependent effect | 10 µM | −.066 | state of fibrils by electron microscopy at 100 μM compound ([2]; two-week incubation): no intact fibrils present; state of fibrils by electron microscopy at 1 mM compound ([2]; two-week incubation): no visible fibrils |
| NC(CO)C(=O)NNCc1ccc(O)c(O)c1O (centres unmarked) [Compound L18, benserazide hydrochloride] | – | had an effect on fibrils | 10 µM | – | 10 µM | −.066 | dose-dependent effect on thioflavin T/β-2 microglobulin fibril fluorescence (words) ([3]; hydrochloride): dose-dependent; concentration at which preformed human B2M fibrils are disrupted ([3]; in the range of): ~10 µM; dose-dependent effect on thioflavin T/β-2 microglobulin fibril fluorescence (words) ([3]; listed as benserazide, hydrochloride): dose-related effects; plasma concentrations routinely achievable [5]: 6 µM |
